Results: patent publication US11634396B2 (priority 2021, dated 2023)
Read-outs that look alike come from different tables or passages of the source.

Target: human mOR (Homo sapiens (Human), UniProt P35372)
Assay: cell-based
Procedure: CHO Tag-lite human mOR stable cell line from Cisbio (NCBI accession number: NM_000914.3, Bedford, Mass.) were seeded and grown to approximately 80% confluence in Ham F-12 with 10% FBS, 50 U/ml penicillin, 50 μg/ml streptomycin, 2 mM Hepes, and 1 mg/ml geneticin (Invitrogen, Carlsbad, Calif.). Cells were then harvested using accutase (Corning. Coming, N.Y.), centrifuged at 1300 RPM for 5 min, and plated at 5000 cells per 5 μL per well in a 5× dilution of stimulation buffer consisting of the HTRF cAMP Gi kit, water and IBMX at 0.5 mM (Cisbio, Bedford, Mass.) in white HTRF low volume 384 well plates (Cisbio, Bedford, Mass.). Plates were then incubated at 37° C. in 5% CO2 for 10 minutes. For the agonist assay, forskolin was added to a final concentration of 4 μM. […] Test compounds were dissolved in DMSO and water, and then serially diluted to working concentrations such that the concentration of DMSO was less than 0.1%. Diluted test compounds were added at 2.5 μL per well, and plates were incubated at 37° C., and 5% CO2 for 15 minutes, and then at room temperature for 15 minutes. Next 5 μl/well of cAMP Eu-cryptate and 5 μl/well of anti-cAMP-d2 (both diluted 1:20 in lysis buffer) were added, and plates were incubated at room temperature for 1 hour. Following incubation, plates were read in a Synergy Neo2 multi-mode reader (Biotek, Winooski, Vt.). […] For the agonist assay, data was normalized using the maximal DAMGO response. Measurements were performed in triplicate and the dose response was fit using nonlinear regression.

[1] = CHO Tag-lite human mOR stable cell line, forskolin 4 μM and DAMGO at EC90, read-out: mOR cAMP Antagonist Assay IC50
[2] = read-out: mOR cAMP Antagonist Assay IC50

Sequence of human mOR (P35372 whole entry): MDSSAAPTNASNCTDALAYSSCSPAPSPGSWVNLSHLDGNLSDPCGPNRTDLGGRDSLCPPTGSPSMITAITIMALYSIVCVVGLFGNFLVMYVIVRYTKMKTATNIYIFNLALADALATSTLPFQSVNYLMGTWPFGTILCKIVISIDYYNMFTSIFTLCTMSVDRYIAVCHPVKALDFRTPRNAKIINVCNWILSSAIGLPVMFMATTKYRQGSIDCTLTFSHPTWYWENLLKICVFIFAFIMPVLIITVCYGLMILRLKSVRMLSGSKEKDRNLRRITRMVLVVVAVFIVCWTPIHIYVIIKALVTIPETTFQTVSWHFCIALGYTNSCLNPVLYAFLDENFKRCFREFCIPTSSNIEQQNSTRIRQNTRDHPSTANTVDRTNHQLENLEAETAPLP

| SMILES | IC50 | other results |
| --- | --- | --- |
| CN(C)[C@H](CNC(=O)C[C@H](c1ccncc1)C1CC1)Cc1c(F)cc(O)cc1F [Compound 239, (S)-3-cyclopropyl-N-((S)-3-(2,6-difluoro-4-hydroxyphenyl)-2-(dimethylamino)propyl)-3-(pyridin-4-yl)propanamide] | < 300 nM |  |
| Cc1cc([C@@H](CC(=O)NC[C@H](Cc2ccc(C(N)=O)c(F)c2)N(C)C)C2(C(F)(F)F)CC2)cs1 [Compound 52, 4-((S)-2-(dimethylamino)-3-((S)-3-(5-methylthiophen-3-yl)-3-(1-(trifluoromethyl)cyclopropyl)propanamido)propyl)-2-fluorobenzamide] | < 300 nM |  |
| Cc1ccc([C@@H](CC(=O)NC[C@H](Cc2ccc(O)cc2)N(C)C)C2(C(F)(F)F)CC2)cn1 [Compound 302, (R)-N-((S)-2-(dimethylamino)-3-(4-hydroxyphenyl)propyl)-3-(6-methylpyridin-3-yl)-3-(1-(trifluoromethyl)cyclopropyl) propanamide] | < 300 nM |  |
| CNC(=O)c1ccc(C[C@@H](CNC(=O)C[C@@H](CC(C)C)c2ccccn2)N(C)C)c(C)c1 [Compound 140, 4-((S)-2-(dimethylamino)-3-((R)-5-methyl-3-(pyridin-2-yl)hexanamido)propyl)-N,3-dimethylbenzamide] | > 3000 nM |  |
| Cc1cc(O)cc(C)c1C[C@@H](CNC(=O)C1CC1c1ncccn1)N(C)C (stereo partly drawn) [Compound 248, N-((S)-2-(dimethylamino)-3-(4-hydroxy-2,6-dimethylphenyl)propyl)-2-(pyrimidin-2-yl)cyclopropane-1-carboxamide] |  | IC50 [1]: 300 to 3000 nM |
| CN(C)[C@H](CNC(=O)C[C@H](c1ccncc1F)C1(C(F)(F)F)CC1)Cc1ccc(C(N)=O)c(F)c1 [Compound 61, 4-((S)-2-(dimethylamino)-3-((R)-3-(3-fluoropyridin-4-yl)-3-(1-(trifluoromethyl)cyclopropyl)propanamido)propyl)-2-fluorobenzamide] | > 3000 nM |  |
| CN(C)[C@H](CNC(=O)CC(c1cncnc1)C1(C(F)(F)F)CC1)Cc1ccc(C(N)=O)cc1Cl (stereo partly drawn) [Compound 30, 3-chloro-4-[(2S)-2-(dimethylamino)-3-[3-(pyrimidin-5-yl)-3-[1-(trifluoromethyl)cyclopropyl]propanamido]propyl]benzamide] | < 300 nM |  |
| CNC(=O)c1ccc(C[C@@H](CNC(=O)C[C@H](c2ccncc2F)C2(C(F)(F)F)CC2)N(C)C)c(C)c1 [Compound 127, 4-((S)-2-(dimethylamino)-3-((R)-3-(3-fluoropyridin-4-yl)-3-(1-(trifluoromethyl)cyclopropyl)propanamido)propyl)-N,3-dimethylbenzamide] | < 300 nM |  |
| Cc1ccc([C@@H](CC(=O)NC[C@H](Cc2ccc(C(N)=O)c(F)c2C)N(C)C)C2(C(F)(F)F)CC2)cn1 [Compound 46, 4-((S)-2-(dimethylamino)-3-((R)-3-(6-methylpyridin-3-yl)-3-(1-(trifluoromethyl)cyclopropyl)propanamido)propyl)-2-fluoro-3-methylbenzamide] | < 300 nM |  |
| CN(C)[C@H](CNC(=O)C[C@@H](CC1CC1)c1cccnc1)Cc1ccc2[nH]ncc2c1 [Compound 212, (R)-4-cyclopropyl-N-((S)-2-(dimethylamino)-3-(1H-indazol-5-yl)propyl)-3-(pyridin-3-yl)butanamide] |  | IC50 [1]: > 3000 nM |
| Cc1ncc([C@@H](CC(=O)NC[C@H](Cc2ccc(O)c(Cl)c2)N(C)C)C2(C(F)(F)F)CC2)cn1 [Compound 283, (R)-N-((S)-3-(3-chloro-4-hydroxyphenyl)-2-(dimethylamino)propyl)-3-(2-methylpyrimidin-5-yl)-3-(1-(trifluoromethyl)cyclopropyl)propanamide] | < 300 nM |  |
| CNC(=O)c1ccc(C[C@@H](CNC(=O)CC(c2ccc(OC)nc2)C2(C(F)(F)F)CC2)N(C)C)c(Cl)c1 (stereo partly drawn) [Compound 115, 3-chloro-4-((2S)-2-(dimethylamino)-3-(3-(6-methoxypyridin-3-yl)-3-(1-(trifluoromethyl)cyclopropyl)propanamido)propyl)-N-methylbenzamide] |  | IC50 [2]: 300 to 3000 nM |
| CN(C)[C@H](CNC(=O)CC(c1ncccn1)C1(C(F)(F)F)CC1)Cc1ccc(O)cc1 (stereo partly drawn) [Compound 313, N-((S)-2-(dimethylamino)-3-(4-hydroxyphenyl)propyl)-3-(pyrimidin-2-yl)-3-(1-(trifluoromethyl)cyclopropyl)propanamide] | < 300 nM |  |
| Cc1ncc([C@@H](CC(=O)NC[C@H](Cc2cc(F)c(C(N)=O)c(F)c2)N(C)C)C2(C(F)(F)F)CC2)cn1 [Compound 48, 4-((S)-2-(dimethylamino)-3-((R)-3-(2-methylpyrimidin-5-yl)-3-(1-(trifluoromethyl)cyclopropyl)propanamido)propyl)-2,6-difluorobenzamide] | > 3000 nM |  |
| CN(C)[C@H](CNC(=O)CC(c1ccncc1)C1(C(F)(F)F)CC1)Cc1ccc(O)cc1 (stereo partly drawn) [Compound 309, N-((S)-2-(dimethylamino)-3-(4-hydroxyphenyl)propyl)-3-(pyridin-4-yl)-3-(1-(trifluoromethyl)cyclopropyl)propanamide] | < 300 nM |  |
| CNC(=O)c1ccc(C[C@@H](CNC(=O)C[C@H](c2ccc(C)nc2)C2(C(F)(F)F)CC2)N(C)C)c(C)c1 [Compound 132, 4-((S)-2-(dimethylamino)-3-((R)-3-(6-methylpyridin-3-yl)-3-(1-(trifluoromethyl)cyclopropyl)propanamido)propyl)-N,3-dimethylbenzamide] | < 300 nM |  |
| CN(C)[C@H](CNC(=O)CC(c1ncc(Cl)cn1)C1(C(F)(F)F)CC1)Cc1ccc(C(N)=O)cc1Cl (stereo partly drawn) [Compound 31, 3-chloro-4-[(2S)-3-[3-(5-chloropyrimidin-2-yl)-3-[1-(trifluoromethyl)cyclopropyl]propanamido]-2-(dimethylamino)propyl]benzamide] | < 300 nM |  |
| CN(C)[C@H](CNC(=O)CC(c1cccnc1)C1(C(F)(F)F)CC1)Cc1ccc(O)c(Cl)c1 (stereo partly drawn) [Compound 287, N-((S)-3-(3-chloro-4-hydroxyphenyl)-2-(dimethylamino)propyl)-3-(pyridin-3-yl)-3-(1-(trifluoromethyl)cyclopropyl)propanamide] | < 300 nM |  |
| Cc1cc(O)cc(C)c1C[C@@H](CNC(=O)CC(c1ncc(Cl)cn1)C1(C(F)(F)F)CC1)N(C)C (stereo partly drawn) [Compound 246, 3-(5-chloropyrimidin-2-yl)-N-((S)-2-(dimethylamino)-3-(4-hydroxy-2,6-dimethylphenyl)propyl)-3-(1-(trifluoromethyl)cyclopropyl)propanamide] | < 300 nM |  |
| CC(C)[C@H](CC(=O)NC[C@H](Cc1ccc(C(N)=O)c(F)c1)N(C)C)c1cccnc1 [Compound 78, 4-[(2S)-2-(dimethylamino)-3-[(3S)-4-methyl-3-(pyridin-3-yl)pentanamido]propyl]-2-fluorobenzamide] | > 3000 nM |  |
| CN(C)[C@H](CNC(=O)C[C@H](c1ccncc1)C1(C(F)(F)F)CC1)Cc1ccc2[nH]c(=O)ccc2c1 [Compound 103, (R)-N-((S)-2-(dimethylamino)-3-(2-oxo-1,2-dihydroquinolin-6-yl)propyl)-3-(pyridin-4-yl)-3-(1-(trifluoromethyl)cyclopropyl) propanamide] |  | IC50 [2]: > 3000 nM |
| CN(C)[C@H](CNC(=O)C[C@H](c1ccncc1)C1(C(F)(F)F)CC1)Cc1ccc2[nH]ncc2c1Cl [Compound 191, (R)-N-((S)-3-(4-chloro-1H-indazol-5-yl)-2-(dimethylamino)propyl)-3-(pyridin-4-yl)-3-(1-(trifluoromethyl)cyclopropyl)propanamide] |  | IC50 [1]: < 300 nM |
| CNC(=O)c1ccc(C[C@@H](CNC(=O)C[C@H](c2cccnc2)C(C)(C)C)N(C)C)c(C)c1 [Compound 129, 4-((S)-3-((S)-4,4-dimethyl-3-(pyridin-3-yl)pentanamido)-2-(dimethylamino)propyl)-N,3-dimethylbenzamide] | < 300 nM |  |
| CN(C)[C@H](CNC(=O)C[C@@H](c1cncc(F)c1)C(C)(C)C)Cc1ccc(C(N)=O)c(F)c1 [Compound 63, 4-((S)-2-(dimethylamino)-3-((R)-3-(5-fluoropyridin-3-yl)-4,4-dimethylpentanamido)propyl)-2-fluorobenzamide] |  | IC50 [1]: < 300 nM |
| CNC(=O)c1ccc(C[C@@H](CNC(=O)CC(c2cccnc2)C2(C(F)(F)F)CC2)N(C)C)c(C)c1F (stereo in doubt) [Compound 124, 4-((S)-2-(dimethylamino)-3-((S)-3-(pyridin-3-yl)-3-(1-(trifluoromethyl)cyclopropyl)propanamido)propyl)-2-fluoro-N,3-dimethylbenzamide] | > 3000 nM |  |
| COc1ccc(C[C@@H](CNC(=O)C[C@H](c2cccnc2)C2(C(F)(F)F)CC2)N(C)C)c(Cl)c1F [Compound 259, (R)-N-((S)-3-(2-chloro-3-fluoro-4-methoxyphenyl)-2-(dimethylamino)propyl)-3-(pyridin-3-yl)-3-(1-(trifluoromethyl)cyclopropyl)propanamide] | > 3000 nM |  |
| CN(C)[C@H](CNC(=O)C[C@H](c1cccnc1)C1(C(F)(F)F)CC1)Cc1ccc2cn[nH]c2c1 [Compound 232, (R)-N-((S)-2-(dimethylamino)-3-(1H-indazol-6-yl)propyl)-3-(pyridin-3-yl)-3-(1-(trifluoromethyl)cyclopropyl)propanamide] | 300 to 3000 nM |  |
